Marks after values point to notes of the source that are not given here.
Legend:
[1] = target: T1, MATE1 (SLC47A1) (Homo sapiens, UniProt Q96FL8); assay: in vitro; conditions: pH 7.4
T1 sequence (Q96FL8 1-570): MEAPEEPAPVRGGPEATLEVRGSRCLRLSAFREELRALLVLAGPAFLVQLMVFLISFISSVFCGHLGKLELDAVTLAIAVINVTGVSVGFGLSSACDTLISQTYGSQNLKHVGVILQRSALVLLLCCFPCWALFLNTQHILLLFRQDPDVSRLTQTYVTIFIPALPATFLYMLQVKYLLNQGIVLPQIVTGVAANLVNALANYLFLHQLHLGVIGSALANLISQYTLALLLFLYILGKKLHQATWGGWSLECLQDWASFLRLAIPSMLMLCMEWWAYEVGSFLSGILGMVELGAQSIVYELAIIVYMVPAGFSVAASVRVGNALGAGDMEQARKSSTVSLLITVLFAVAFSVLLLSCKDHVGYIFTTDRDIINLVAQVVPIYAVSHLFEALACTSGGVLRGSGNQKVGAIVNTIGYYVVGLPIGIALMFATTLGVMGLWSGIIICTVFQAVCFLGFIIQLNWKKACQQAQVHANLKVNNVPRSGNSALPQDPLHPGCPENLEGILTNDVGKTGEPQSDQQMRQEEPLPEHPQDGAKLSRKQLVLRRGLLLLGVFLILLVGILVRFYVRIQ

[2] = target: T2, MATE2-K (SLC47A2) (Homo sapiens, UniProt Q86VL8); assay: in vitro; conditions: pH 7.4
[3] = target: T3, OCT1 (SLC22A1) (Homo sapiens, UniProt O15245); assay: in vitro; conditions: pH 7.4
T3 sequence (O15245 1-554): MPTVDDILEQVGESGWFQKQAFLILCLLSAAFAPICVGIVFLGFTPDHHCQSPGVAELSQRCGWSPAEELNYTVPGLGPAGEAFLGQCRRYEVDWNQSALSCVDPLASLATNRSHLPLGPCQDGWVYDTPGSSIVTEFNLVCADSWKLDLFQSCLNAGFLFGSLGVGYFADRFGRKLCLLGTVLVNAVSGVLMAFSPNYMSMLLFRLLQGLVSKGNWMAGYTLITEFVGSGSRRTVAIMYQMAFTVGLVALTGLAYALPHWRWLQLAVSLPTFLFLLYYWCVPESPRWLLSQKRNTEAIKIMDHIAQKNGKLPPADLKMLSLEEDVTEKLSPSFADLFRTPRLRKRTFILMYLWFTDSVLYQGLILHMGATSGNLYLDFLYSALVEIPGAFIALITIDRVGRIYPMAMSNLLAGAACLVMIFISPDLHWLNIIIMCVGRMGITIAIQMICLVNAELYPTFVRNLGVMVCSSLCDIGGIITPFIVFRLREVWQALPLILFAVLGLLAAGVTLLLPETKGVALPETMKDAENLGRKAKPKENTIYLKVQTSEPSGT

[4] = target: T4, OCT2 (SLC22A2) (Homo sapiens, UniProt O15244); assay: Cellular uptake into OCT2-overexpressing HEK293 cells vs EV control cells (HPLC-MS/MS); conditions: for uptake ratio OCT2 (transporter-overexpressing cells over EV control cells): mean (±SD, N): 2 min, HEK293; for K m (±SEM) / v max (±SEM): OCT2, net uptake, Michaelis–Menten; for higher v max of one enantiomer over the other, OCT2: label = enantiomer with higher v max
T4 sequence (O15244 1-555): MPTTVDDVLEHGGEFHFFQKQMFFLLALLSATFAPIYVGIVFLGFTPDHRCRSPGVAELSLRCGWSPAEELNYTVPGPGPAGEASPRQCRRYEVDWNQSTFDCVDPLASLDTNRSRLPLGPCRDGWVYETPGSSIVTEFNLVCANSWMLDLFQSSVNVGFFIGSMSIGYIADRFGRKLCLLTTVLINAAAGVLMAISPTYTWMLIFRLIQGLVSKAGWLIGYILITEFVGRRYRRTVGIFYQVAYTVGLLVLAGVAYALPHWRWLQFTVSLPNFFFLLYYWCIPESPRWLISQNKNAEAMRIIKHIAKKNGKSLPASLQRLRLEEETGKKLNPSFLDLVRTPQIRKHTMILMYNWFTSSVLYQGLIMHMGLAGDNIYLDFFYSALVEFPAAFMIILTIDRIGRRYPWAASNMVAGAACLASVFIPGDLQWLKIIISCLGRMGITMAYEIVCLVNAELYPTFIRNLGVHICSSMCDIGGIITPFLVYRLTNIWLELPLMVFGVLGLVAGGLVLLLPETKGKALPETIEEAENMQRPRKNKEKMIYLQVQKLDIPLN

[5] = target: T5, OCT3 (SLC22A3) (Homo sapiens, UniProt O75751); assay: Cellular uptake into OCT3-overexpressing HEK293 cells vs EV control cells (HPLC-MS/MS); conditions: for uptake ratio OCT3 (transporter-overexpressing cells over EV control cells): mean (±SD, N): 2 min, HEK293; for stereoselectivity OCT3 (uptake ratio of the more strongly transported enantiomer divided by that of the other): label = favoured enantiomer
T5 sequence (O75751 1-556): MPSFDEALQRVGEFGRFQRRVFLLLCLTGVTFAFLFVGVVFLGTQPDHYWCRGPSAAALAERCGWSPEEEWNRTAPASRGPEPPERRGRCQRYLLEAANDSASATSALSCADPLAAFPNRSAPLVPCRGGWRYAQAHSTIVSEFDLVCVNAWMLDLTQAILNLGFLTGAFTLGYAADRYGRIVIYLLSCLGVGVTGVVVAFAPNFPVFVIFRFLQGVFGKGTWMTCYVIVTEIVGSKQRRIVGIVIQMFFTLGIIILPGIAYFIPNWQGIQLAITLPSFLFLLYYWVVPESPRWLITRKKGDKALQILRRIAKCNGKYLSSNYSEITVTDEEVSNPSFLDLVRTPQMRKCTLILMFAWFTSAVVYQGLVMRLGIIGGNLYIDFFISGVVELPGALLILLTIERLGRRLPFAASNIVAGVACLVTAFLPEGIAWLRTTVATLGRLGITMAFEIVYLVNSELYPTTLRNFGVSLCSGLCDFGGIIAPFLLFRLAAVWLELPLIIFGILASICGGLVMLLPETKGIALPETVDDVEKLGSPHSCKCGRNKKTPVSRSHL

[6] = target: T2, MATE2-K (SLC47A2); assay: Cellular uptake into MATE2-K-overexpressing HEK293 cells vs EV control cells (HPLC-MS/MS); conditions: for uptake ratio MATE2K (transporter-overexpressing cells over EV control cells): mean (±SD, N): 2.5 μM substrate, 1 min, 30 mM NH4Cl preincubation, HEK293
[7] = target: T4, OCT2 (SLC22A2); assay: in vitro; conditions: pH 7.4
[8] = target: T1, MATE1 (SLC47A1); assay: Cellular uptake into MATE1-overexpressing HEK293 cells vs EV control cells (HPLC-MS/MS); conditions: for uptake ratio MATE1 (transporter-overexpressing cells over EV control cells): mean (±SD, N): 2.5 μM substrate, 1 min, 30 mM NH4Cl preincubation, HEK293
[9] = target: T3, OCT1 (SLC22A1); assay: Cellular uptake into OCT1-overexpressing HEK293 cells vs EV control cells (HPLC-MS/MS); conditions: for uptake ratio OCT1 (transporter-overexpressing cells over EV control cells): mean (±SD, N): 2 min, HEK293
[10] = 2.5 μM substrate (§), listed as L-tert-leucinol
[11] = 2.5 μM substrate (§), listed as (S)-(+)-2-amino-1-Pentanol
[12] = listed as (S)-(+)-2-amino-1-Pentanol

T2 sequence (Q86VL8 1-566 isoform Q86VL8-3): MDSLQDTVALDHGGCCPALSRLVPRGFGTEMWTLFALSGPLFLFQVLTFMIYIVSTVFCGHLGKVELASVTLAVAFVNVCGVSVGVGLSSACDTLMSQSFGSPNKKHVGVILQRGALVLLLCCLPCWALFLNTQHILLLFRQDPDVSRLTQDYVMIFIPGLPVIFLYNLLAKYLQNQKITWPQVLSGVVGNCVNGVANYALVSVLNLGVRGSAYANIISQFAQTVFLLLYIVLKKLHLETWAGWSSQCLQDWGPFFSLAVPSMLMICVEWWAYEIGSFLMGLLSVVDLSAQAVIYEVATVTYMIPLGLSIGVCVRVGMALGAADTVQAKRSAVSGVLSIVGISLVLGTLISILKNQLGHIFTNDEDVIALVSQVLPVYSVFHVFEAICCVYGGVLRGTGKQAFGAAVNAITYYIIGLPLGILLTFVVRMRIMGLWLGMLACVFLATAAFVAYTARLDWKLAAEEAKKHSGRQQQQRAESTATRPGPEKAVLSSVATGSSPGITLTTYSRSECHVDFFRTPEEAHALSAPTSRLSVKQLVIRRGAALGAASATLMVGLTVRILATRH

CC(C)(C)[C@@H](N)CO [(R)-(−)-tert-leucinol]
selectivity ratio at 1 min [1]: 1.3
selectivity ratio at 1 min [2]: 1.5

CC(C)(C)[C@H](N)CO [L-tert-Leucinol]
selectivity ratio at 2 min [3]: 1.3
uptake ratio OCT2 (transporter-overexpressing cells over EV control cells): mean (±SD, N) ([4]; 2.5 μM substrate (§)): 10.8 (1.4, 3) ^b
uptake ratio OCT2 (transporter-overexpressing cells over EV control cells): mean (±SD, N) [4, 10]: 10.8
uptake ratio OCT3 (transporter-overexpressing cells over EV control cells): mean (±SD, N) ([5]; 2.5 μM substrate (§)): 2.1 (0.5, 3)
uptake ratio OCT3 (transporter-overexpressing cells over EV control cells): mean (±SD, N) [5, 10]: 2.1
stereoselectivity OCT3 (uptake ratio of the more strongly transported enantiomer divided by that of the other) [5]: 1.9-fold for(S) ^a
uptake ratio MATE2K (transporter-overexpressing cells over EV control cells): mean (±SD, N) [6]: 0.9 (0.3, 3)
uptake ratio MATE2K (transporter-overexpressing cells over EV control cells): mean (±SD, N) ([6]; listed as L-tert-leucinol): 0.9
selectivity ratio at 2 min [7]: 1.4
uptake ratio MATE1 (transporter-overexpressing cells over EV control cells): mean (±SD, N) [8]: 0.7 (0.2, 3)
uptake ratio MATE1 (transporter-overexpressing cells over EV control cells): mean (±SD, N) ([8]; listed as L-tert-leucinol): 0.7
uptake ratio OCT1 (transporter-overexpressing cells over EV control cells): mean (±SD, N) ([9]; 2.5 μM substrate (§)): 1.4 (0.4, 3)
uptake ratio OCT1 (transporter-overexpressing cells over EV control cells): mean (±SD, N) [9, 10]: 1.4

CC(C)[C@H](N)CO [L-valinol]
K m (±SEM) [4]: 362(±156) μM
v max (±SEM) [4]: 4970 (±967) pmol/mg protein/min
higher v max of one enantiomer over the other, OCT2 [4]: 2.0 fold
stereoselectivity OCT3 (uptake ratio of the more strongly transported enantiomer divided by that of the other) [5]: 1.04-fold for (S)
selectivity ratio at 2 min [7]: 1.04
selectivity ratio at 1 min [2]: 1.5

CC(C)[C@@H](N)CO [D-valinol]
selectivity ratio at 2 min [3]: 1.3
K m (±SEM) [4]: 329 (±190) μM
v max (±SEM) [4]: 2488 (±573) pmol/mg protein/min
selectivity ratio at 1 min [1]: 1.4

CC(C)C[C@@H](N)CO [(R)-(−)-leucinol]
selectivity ratio at 1 min [1]: 1.1
stereoselectivity OCT3 (uptake ratio of the more strongly transported enantiomer divided by that of the other) [5]: 1.4-fold for (R)

CC(C)C[C@H](N)CO [(S)-(+)-leucinol]
selectivity ratio at 2 min [7]: 1.2

CCCC[C@H](N)CO [(S)-(+)-2-amino-1-hexanol]
K m (±SEM) [4]: 39 (±12) μM
v max (±SEM) [4]: 786 (±72) ^b pmol/mg protein/min
stereoselectivity OCT3 (uptake ratio of the more strongly transported enantiomer divided by that of the other) [5]: 1.3-fold for (S)
selectivity ratio at 2 min [7]: 1.3

CCC[C@H](N)CO [(S)-(+)-2-amino-1-pentanol]
uptake ratio OCT2 (transporter-overexpressing cells over EV control cells): mean (±SD, N) ([4]; 2.5 μM substrate (§)): 6.0 (1.7, 4) ^b
uptake ratio OCT2 (transporter-overexpressing cells over EV control cells): mean (±SD, N) [4, 11]: 6.0
K m (±SEM) [4]: 245 (±83) μM
v max (±SEM) [4]: 2342 (±290) ^a pmol/mg protein/min
K m (±SEM) ([4]; listed as (S)-2-amino-1-pentanol): 245 µM
higher v max of one enantiomer over the other, OCT2 [4]: 1.6 fold
uptake ratio OCT3 (transporter-overexpressing cells over EV control cells): mean (±SD, N) ([5]; 2.5 μM substrate (§)): 1.1 (0.2, 4)
uptake ratio OCT3 (transporter-overexpressing cells over EV control cells): mean (±SD, N) [5, 11]: 1.1
stereoselectivity OCT3 (uptake ratio of the more strongly transported enantiomer divided by that of the other) [5]: 1.1-fold for (S)
uptake ratio MATE2K (transporter-overexpressing cells over EV control cells): mean (±SD, N) [6]: 1.5 (0.4, 4)
uptake ratio MATE2K (transporter-overexpressing cells over EV control cells): mean (±SD, N) [6, 12]: 1.5
selectivity ratio at 2 min [7]: 1.2
uptake ratio MATE1 (transporter-overexpressing cells over EV control cells): mean (±SD, N) [8]: 1.1 (0.1, 4)
uptake ratio MATE1 (transporter-overexpressing cells over EV control cells): mean (±SD, N) [8, 12]: 1.1
uptake ratio OCT1 (transporter-overexpressing cells over EV control cells): mean (±SD, N) ([9]; 2.5 μM substrate (§)): 1.0 (0.3, 4)
uptake ratio OCT1 (transporter-overexpressing cells over EV control cells): mean (±SD, N) [9, 11]: 1.0

NCCO [ethanolamine^13C2, ethanolamine-^13C2]
uptake ratio OCT2 (transporter-overexpressing cells over EV control cells): mean (±SD, N) ([4]; 10 μM substrate): 0.4 (0.2, 4) ^b
less uptake in OCT2-transfected cells compared to EV control cells ([4]; 10 μM, p = 0.009): 64%
uptake in OCT2-overexpressing cells as part of the uptake observed in EV control cells ([4]; discussion): two-thirds
uptake ratio OCT3 (transporter-overexpressing cells over EV control cells): mean (±SD, N) ([5]; 10 μM substrate): 1.4 (0.5, 4)
uptake ratio MATE2K (transporter-overexpressing cells over EV control cells): mean (±SD, N) [6]: 1.2 (0.4, 4)
uptake ratio MATE1 (transporter-overexpressing cells over EV control cells): mean (±SD, N) [8]: 1.2 (0.4, 4)
lower uptake in OCT1-transfected cells compared to EV control cells ([9]; 10 μM): 38%
uptake ratio OCT1 (transporter-overexpressing cells over EV control cells): mean (±SD, N) ([9]; 10 μM substrate): 0.6 (0.3, 4)
uptake in OCT1-overexpressing cells as part of the uptake observed in EV control cells ([9]; discussion): approximately one-third

OCCNCCO [diethanolamine]
substrate activity at OCT2 (in words) [4]: did not show any substrate activity
substrate activity at OCT3 (in words) ([5]; uptake ratio ≥2 = notable transport): did not show any substrate activity
substrate activity at MATE2-K (in words) [6]: did not show any substrate activity
substrate activity at MATE1 (in words) [8]: did not show any substrate activity
substrate activity at OCT1 (in words) [9]: did not show any substrate activity

From publication PMC12340637, “Transport of Small Aliphatic Amines by Polyspecific Solute Carriers: Deciphering Structure–Function Relationships” (ACS Pharmacology & Translational Science, 2025)
